Reference: patent US4323550A, “Halogenohydrates of N,N-disubstituted derivatives of piperazine having anticariogenic properties” (priority 1976, dated 1982)

Tests used:
mice = assay: Acute oral toxicity in mice; format: in vivo
Procedure: By way of example there are described below the comparative tests made on difluorohydrate of N,N'-di(hydroxyethyl) piperazine and on fluorohydrate of hexadecylamine or "ELMEX 242".
The acute toxidity was studies in rats and in mice.
The animals came from a homogeneous breed. The mice weighed between 19 and 21 g and the rats weighed from 120 to 140 g. The mice were grouped in lots of 10 and the rats in lots of 8.
The administrations took place orally at a volume of 0.5 ml per 20 g of mouse and 1 ml per 100 g of rat. The LD50 was determined by the method of Lichfield and Wilcoxon.
As regards the difluorohydrate of N,N'-di(hydroxyethyl) piperazine, the administered solution was prepared by diluting the mother solution to 65.4%, the dilutions being made after having weighed this solution. The administered dose is expressed by weight, taking account of the indicated strength of this solution.
For the solid "ELMEX 242" an aqueous suspension was prepared with the aid of solubilizing agents (e.g. Tween-polyoxyethylene sorbitan monolaurate). A very thick suspension is then obtained which tends to foam heavily, is difficult to get into the esophageal sound, and the determination of its volume is rendered difficult by the foam.
The results obtained with the "ELMEX" are therefore rather approximate.

[1] = Ionizable fluorine content; format: physicochemical

OCCN1CCN(CCO)CC1 [DIFLUOROHYDRATE OF N,N'-DI(HYDROXY-ETHYL) PIPERAZINE]
toxicity compared with ELMEX 242 (mice; conclusion from mouse and rat, solution versus suspension): clearly more toxic than "ELMEX 242" | course: death and recovery (mice; mouse): Death occurs after one hour at the highest doses. | symptoms (mice; mouse): At higher doses the mice are totally immobile. They show light trembling, but over the entire body, also diarrhea. | Deaths (mice; mouse, 200 mg/kg, D + 1, 10 per lot): 0 | Deaths (mice; mouse, 200 mg/kg, D + 2, 10 per lot): 0 | Deaths (mice; mouse, 200 mg/kg, D + 5, 10 per lot): 0 | Deaths (mice; mouse, 200 mg/kg, D + 10, 10 per lot): 0 | Deaths (mice; mouse, 300 mg/kg, D + 1, 10 per lot): 0 | Deaths (mice; mouse, 300 mg/kg, D + 2, 10 per lot): 0 | Deaths (mice; mouse, 300 mg/kg, D + 5, 10 per lot): 0 | Deaths (mice; mouse, 300 mg/kg, D + 10, 10 per lot): 0 | Deaths (mice; mouse, 400 mg/kg, D + 1, 10 per lot): 2 | Deaths (mice; mouse, 400 mg/kg, D + 2, 10 per lot): 3 | Deaths (mice; mouse, 400 mg/kg, D + 5, 10 per lot): 3 | Deaths (mice; mouse, 400 mg/kg, D + 10, 10 per lot): 3 | Deaths (mice; mouse, 500 mg/kg, D + 1, 10 per lot): 3 | Deaths (mice; mouse, 500 mg/kg, D + 2, 10 per lot): 5 | Deaths (mice; mouse, 500 mg/kg, D + 5, 10 per lot): 5 | Deaths (mice; mouse, 500 mg/kg, D + 10, 10 per lot): 5 | Deaths (mice; mouse, 600 mg/kg, D + 1, 10 per lot): 4 | Deaths (mice; mouse, 600 mg/kg, D + 2, 10 per lot): 7 | Deaths (mice; mouse, 600 mg/kg, D + 5, 10 per lot): 8 | Deaths (mice; mouse, 600 mg/kg, D + 10, 10 per lot): 8 | Deaths (mice; mouse, 700 mg/kg, D + 1, 10 per lot): 9 | Deaths (mice; mouse, 700 mg/kg, D + 2, 10 per lot): 10 | Deaths (mice; mouse, 700 mg/kg, D + 5, 10 per lot): 10 | Deaths (mice; mouse, 700 mg/kg, D + 10, 10 per lot): 10 | Deaths (mice; mouse, 800 mg/kg, D + 1, 10 per lot): 7 | Deaths (mice; mouse, 800 mg/kg, D + 2, 10 per lot): 8 | Deaths (mice; mouse, 800 mg/kg, D + 5, 10 per lot): 9 | Deaths (mice; mouse, 800 mg/kg, D + 10, 10 per lot): 9 | Deaths (mice; mouse, 1000 mg/kg, D + 1, 10 per lot): 10 | Deaths (mice; mouse, 1000 mg/kg, D + 2, 10 per lot): 10 | Deaths (mice; mouse, 1000 mg/kg, D + 5, 10 per lot): 10 | Deaths (mice; mouse, 1000 mg/kg, D + 10, 10 per lot): 10 | persistence of the ill state (mice; mouse, doses above 400 mg/kg): at least 24 hours | time to onset of coma (mice; mouse, doses above 400 mg/kg): about 45 minutes | ionizable fluorine content [1]: 15.18%
